{
  "source": "paper PMC6523382",
  "about": "(Pharmaceutics, 2019)",
  "key": {"[1]": {"test_system": "rat duodenal, jejunal, and ileal segments", "assay": "Intestinal absorptive permeability in Ussing chambers", "type": "in vitro ADME", "description": "[31]. Briefly, duodenum, jejunum, and ileum segments were dissected and washed as described earlier. The duodenal, jejunal, and ileal segments mounted on the inserts of the Ussing chambers ([…], Holliston, MA, USA) were acclimatized with HBSS for 30 min. […] Aliquots (400 μL) of HBSS in the basal side were withdrawn at 0, 30, 60, 90, and 120 min, and the withdrawn samples were compensated with an equal volume of fresh, preheated HBSS. Carbogen gas (5% CO2/ 95% O2) was bubbled into the Ussing chambers at a rate of 150 drops/min during the experiment. […] For the generation of Na^+ gradient, rat duodenal, jejunal, and ileal segments mounted on the inserts of the Ussing chamber were pretreated with Na^+ free media comprising 10 mM HEPES, 5 mM Tris, 140 mM choline chloride, 2 mM KCl, 1 mM CaCl2, and 1 mM MgCl2 (pH7.4) for 30 min. […] A 100 μL aliquot of samples was transferred to 96-well plates and the fluorescence of Lucifer yellow was read directly in a fluorescence plate reader using a 485 nm excitation and an emission filter of 535 nm."}, "[2]": {"assay": "Ginsenoside concentrations in rat plasma after oral RGE", "type": "in vivo", "description": "Ginsenoside concentrations in RGE and plasma samples were analyzed using an Agilent 6470 triple quadrupole liquid chromatography–tandem mass spectrometry (LC–MS/MS) system (Agilent, Wilmington, DE, USA) equipped with an Agilent 1260 high performance liquid chromatography (HPLC) system, according to a previously published method. […] Aliquots (20 μL) of the supernatant were injected into the LC–MS/MS system for the analysis of ginsenosides. […] The solvent gradient program was as follows: (1) 0–0.5 min, 72% B; (2) 0.5–8.5 min, 84% B; (3) 8.5–19.0 min, 72%.\nQuantification of a separated ginsenoside peak was performed at m/z 1131.6 → 365.1 for Rb1 (TR (retention time) 5.0 min), m/z 1101.6 → 335.1 for Rb2 (TR 6.4 min) and Rc (TR 5.2 min), m/z 969.9 → 789.5 for Rd (TR 8.2 min) and Re (TR 1.6 min), m/z 824 → 643.6 for Rg1 (TR = 1.7 min), m/z 807.5 → 365.1 for Rg3 (TR 12.3 min), m/z 661.5 → 203.1 for Rh1 (TR 3.2 min) and F1 (TR 3.9 min), m/z 587.4 → 407.4 for Rh2 (TR 11.5 min), m/z 807.5 → 627.5 for F2 (TR 5.3 min), m/z 645.5 → 203.1 for compound K (TR 9.5 min), m/z 425.4 → 109.1 for protopanaxadiol (TR 18.8 min), m/z 441.3 → 109.1 for protopanaxatriol (TR 2.9 min), and m/z 336.1 → 320 for berberine (internal standard, IS) (TR 3.7 min) in the positive ionization mode with collision energy (CE) of 15–65 eV."}, "[3]": {"parameters": "method as in PMID 26869413", "details": "cited from earlier work"}, "[4]": {"assay": "Pharmacokinetics of metformin after oral administration in rats", "details": "metformin 50 mg/kg PO, rat; for AUC(0-t): AUC24h", "method": "(§1) Aliquots of plasma (20 µL) and urine (50 µL) samples were vigorously mixed with 200 μL methanol containing 20 ng/mL propranolol (internal standard, IS) for 10 min.\n(§2) Samples were eluted through a Synergy Polar RP column (2.0 mm × 150 mm, 4 µm particle size, Phenomenex, Torrence, CA, USA) using a mobile phase that consisted of methanol and water (70:30, v/v) with 0.1% formic acid at a flow rate of 0.2 mL/min. […] Pharmacokinetic parameters were evaluated from plasma concentration versus time curves by using non-compartment analysis of WinNonlin (version 5.1; Pharsights, Cary, NC, USA)."}, "[5]": {"assay": "Pharmacokinetics of metformin after intravenous injection in rats", "details": "rat; for Ae24h (fraction of dose excreted in urine for 24 h as parent form) / AUC(0-t) / AUC(0-inf) / MRT: metformin […] IV; for AUC(0-t) / AUC(0-inf) / C0 / MRT: plasma, iv; for AUC(0-t): AUC24h; for C0: C0, metformin […] IV", "method": "An aliquot (50 µL) of urine samples was stored at −80 °C for the analysis.\nas §1, §2"}, "[6]": {"details": "plasma, po, 50 mg/kg, 1WRA of RGE 1.5 g/kg/day"}, "[7]": {"details": "plasma, po, 50 mg/kg, SA of RGE 1.5 g/kg"}},
  "note": "Read-outs that look alike come from different tables or passages of the source.",
  "data": [
    {"compound": "CO[C@@H]([C@H](O)[C@H](O)CO)[C@@H](O)C=O", "note": "[3-O-methyl-D-glucose]", "values": [
      {"measurement": "Intestinal absorptive permeability (Papp), effect of RGE", "setting": "[1]; 50 µM, duodenum, jejunum, ileum, SA and 1WRA groups vs control", "value": "not affected"}
    ]},
    {"compound": "CC(C)=CCC[C@](C)(O[C@@H]1O[C@H](CO[C@@H]2O[C@H](CO)[C@@H](O)[C@H](O)[C@H]2O)[C@@H](O)[C@H](O)[C@H]1O)[C@H]1CC[C@]2(C)[C@@H]1[C@H](O)C[C@@H]1[C@@]3(C)CC[C@H](O[C@@H]4O[C@H](CO)[C@@H](O)[C@H](O)[C@H]4O[C@@H]4O[C@H](CO)[C@@H](O)[C@H](O)[C@H]4O)C(C)(C)[C@@H]3CC[C@]12C", "note": "[Rb1]", "values": [
      {"measurement": "concentration at 2 h", "setting": "[2]; rat, plasma, 2 h after single oral administration of RGE (1.5 g/kg), read-out: Concentration in rat plasma, SA", "value": "14.3 ± 2.7", "unit": "ng/mL"},
      {"measurement": "concentration at 24 h", "setting": "[2]; rat, plasma, 24 h after last dose of 1-week repeated oral RGE (1.5 g/kg/day), read-out: Concentration in rat plasma, 1WRA", "value": "35.7 ± 1.9", "unit": "ng/mL"}
    ]},
    {"compound": "CC(C)=CCC[C@](C)(O[C@@H]1O[C@H](CO[C@@H]2OC[C@H](O)[C@H](O)[C@H]2O)[C@@H](O)[C@H](O)[C@H]1O)[C@H]1CC[C@]2(C)[C@@H]1[C@H](O)C[C@@H]1[C@@]3(C)CC[C@H](O[C@@H]4O[C@H](CO)[C@@H](O)[C@H](O)[C@H]4O[C@@H]4O[C@H](CO)[C@@H](O)[C@H](O)[C@H]4O)C(C)(C)[C@@H]3CC[C@]12C", "note": "[Rb2]", "values": [
      {"measurement": "Concentration in rat plasma, SA", "setting": "[2]; 2 h after single oral administration of RGE (1.5 g/kg)", "value": "6.3 ± 2.1", "unit": "ng/mL"},
      {"measurement": "Concentration in rat plasma, 1WRA", "setting": "[2]; 24 h after last dose of 1-week repeated oral RGE (1.5 g/kg/day)", "value": "29.4 ± 1.5", "unit": "ng/mL"}
    ]},
    {"compound": "CN(C)C(=N)N=C(N)N", "note": "[metformin, Metformin]", "values": [
      {"measurement": "Fraction of dose absorbed in the duodenum", "setting": "[3]", "value": "Approximately 20%"},
      {"measurement": "Fraction of dose absorbed in the jejunum and ileum", "setting": "[3]", "value": 60, "unit": "%"},
      {"measurement": "Ae24h (fraction of dose excreted in urine for 24 h as parent form)", "setting": "[4]; 1WRA of RGE 1.5 g/kg/day", "value": "66.29 ± 10.57", "unit": "%"},
      {"measurement": "Tmax", "setting": "[4]; 1WRA of RGE 1.5 g/kg/day", "value": "2.00 ± 0.01", "unit": "h"},
      {"measurement": "Ae24h (fraction of dose excreted in urine for 24 h as parent form)", "setting": "[4]; Control", "value": "54.56 ± 3.26", "unit": "%"},
      {"measurement": "Ae24h (fraction of dose excreted in urine for 24 h as parent form)", "setting": "[4]; SA of RGE 1.5 g/kg", "value": "53.04 ± 3.69", "unit": "%"},
      {"measurement": "AUC(0-t)", "setting": "[4]; [6]", "value": "57600 ± 4990", "unit": "ng·h/mL"},
      {"measurement": "AUC(0-t)", "setting": "[4]; plasma, po, 50 mg/kg, Control", "value": "44300 ± 8310", "unit": "ng·h/mL"},
      {"measurement": "AUC(0-t)", "setting": "[4]; [7]", "value": "45200 ± 11100", "unit": "ng·h/mL"},
      {"measurement": "AUC(0-inf)", "setting": "[4]; [6]", "value": "59000 ± 5170", "unit": "ng·h/mL"},
      {"measurement": "AUC(0-inf)", "setting": "[4]; plasma, po, 50 mg/kg, Control", "value": "44800 ± 8090", "unit": "ng·h/mL"},
      {"measurement": "AUC(0-inf)", "setting": "[4]; [7]", "value": "45700 ± 11200", "unit": "ng·h/mL"},
      {"measurement": "Cmax", "setting": "[4]; [6]", "value": "9900 ± 1490", "unit": "ng/mL"},
      {"measurement": "Cmax", "setting": "[4]; plasma, po, 50 mg/kg, Control", "value": "6310 ± 1680", "unit": "ng/mL"},
      {"measurement": "Cmax", "setting": "[4]; [7]", "value": "6470 ± 2000", "unit": "ng/mL"},
      {"measurement": "MRT", "setting": "[4]; [6]", "value": "4.64 ± 0.68", "unit": "h"},
      {"measurement": "MRT", "setting": "[4]; plasma, po, 50 mg/kg, Control", "value": "4.85 ± 0.58", "unit": "h"},
      {"measurement": "MRT", "setting": "[4]; [7]", "value": "4.69 ± 0.33", "unit": "h"},
      {"measurement": "Tmax", "setting": "[4]; plasma, po, 50 mg/kg, Tmax, Control", "value": "2.4 ± 0.89", "unit": "h"},
      {"measurement": "Ae24h (fraction of dose excreted in urine for 24 h as parent form)", "setting": "[5]; 1WRA of RGE 1.5 g/kg/day", "value": "79.56 ± 5.02", "unit": "%"},
      {"measurement": "Ae24h (fraction of dose excreted in urine for 24 h as parent form)", "setting": "[5]; Control", "value": "80.07 ± 4.93", "unit": "%"},
      {"measurement": "Ae24h (fraction of dose excreted in urine for 24 h as parent form)", "setting": "[5]; SA of RGE 1.5 g/kg", "value": "83.52 ± 5.72", "unit": "%"},
      {"measurement": "AUC(0-t)", "setting": "[5]; 1WRA of RGE 1.5 g/kg/day", "value": "980 ± 362", "unit": "ng·h/mL"},
      {"measurement": "AUC(0-t)", "setting": "[5]; SA of RGE 1.5 g/kg", "value": "1050 ± 237", "unit": "ng·h/mL"},
      {"measurement": "AUC(0-inf)", "setting": "[5]; 1WRA of RGE 1.5 g/kg/day", "value": "986 ± 364", "unit": "ng·h/mL"},
      {"measurement": "AUC(0-inf)", "setting": "[5]; SA of RGE 1.5 g/kg", "value": "1050 ± 239", "unit": "ng·h/mL"},
      {"measurement": "C0", "setting": "[5]; 1WRA of RGE 1.5 g/kg/day", "value": "1760 ± 438", "unit": "ng/mL"},
      {"measurement": "C0", "setting": "[5]; SA of RGE 1.5 g/kg", "value": "1670 ± 623", "unit": "ng/mL"},
      {"measurement": "MRT", "setting": "[5]; 1WRA of RGE 1.5 g/kg/day", "value": "0.85 ± 0.35", "unit": "h"},
      {"measurement": "MRT", "setting": "[5]; SA of RGE 1.5 g/kg", "value": "0.81 ± 0.17", "unit": "h"}
    ]},
    {"compound": "Lucifer yellow", "values": [
      {"measurement": "Intestinal absorptive permeability (Papp), effect of RGE", "setting": "[1]", "value": "not altered"}
    ]}
  ]
}
